The source of these data is patent publication US20220023419A1, “INHIBITING INFLAMMATION” (THE COUNCIL OF THE QUEENSLAND INSTITUTE OF MEDICAL RESEARCH, priority 2018, published 2022).

This assay deals with EpCAM+ epithelial cells in intestinal organoids. In words: Intestinal organoids from small intestine cultured with IFNγ, MHC class-II expression. The class given is cell-based, mouse. The note with it: organoids from B6.MHC class-II-GFP or B6.WT mice cultured with IFNγ. The text has this:
High levels of IFN-γ are secreted by both ILC1 and by conventional T cells in the small intestine. The mechanisms controlling MHC class-II expression by IEC, focusing on interferon (IFN) γ signalling were delineated, since this cytokine is known to potently induce MHC class-II expression. […] To understand the potential sources of IFNγ driving the expression of MHC class II, Rag^−/− common-γ-chain^−/− which lack innate lymphocyte populations, and Rag^−/− mice that lack only conventional TCR-rearranged T cells, were analyzed. […] After TBI-induced inflammation, conventional T cells were required for the upregulation of MHC class II in the ileum. […] In contrast, TBI induced IFN-γ secretion from conventional T cells (CD4^+ Tcon, CD8^+ Tcon) but not innate lymphocyte populations (not shown). […] Thus, constitutive MHC class-II expression on IEC in the ileum causes local T cell activation and IFNγ secretion, consistent with the induction of a local cytokine feed-forward cascade that amplifies MHC class-II expression on IEC. In order to confirm that the induction of MHC class-II expression by IEC was a direct effect of IFNγ, intestinal organoids were cultured from the small intestine of B6.MHC class-II-GFP or B6.WT mice with IFNγ.

Take “IFNγ: cytokine added to intestinal organoid cultures; known to potently induce MHC class-II expression”: the “MHC class-II expression by EpCAM+ epithelial cells in organoids” value is recorded as “did so rapidly in the presence of IFNγ”.
